This passage reports ED50 results from ChEMBL document CHEMBL1148325 (J Med Chem, 2004).

This test in a line: In vivo reduction in blood pressure relative to maximum achieved with the K-ATP standard P1075 in spontaneously hypertensive rat.
For the molecule `O=C1CCCC2=C1[C@H](c1ccc(F)c(Br)c1)C1=C(CCS1(=O)=O)N2`, the ED50 was determined as 427 nM. In the case of `O=C1OCC2=C1C(c1ccc(F)c(Br)c1)C1=C(O)OCC1=N2` (stereo not drawn), the ED50 was 398 nM. In the case of `O=C1CCCC2=C1[C@@H](c1ccc(F)c(Br)c1)C1=C(O)OCC1=N2` it was 2450 nM.
